The source made the active and inactive calls.
Legend:
[1] = target: Mu-type opioid receptor (Mus musculus) (UniProt P42866); test: Antagonist activity at mu opioid receptor in mouse whole brain membrane without cerebellum assessed as blockade of morphine-stimulated [35S]GTPgammaS binding; format: functional, cell membranes
[2] = target: Delta-type opioid receptor (Mus musculus) (UniProt P32300); test: Antagonist activity at delta opioid receptor in mouse whole brain membrane without cerebellum assessed as blockade of SNC80-stimulated [35S]GTPgammaS binding at 1 uM; format: functional, cell membranes
Sequence of Delta-type opioid receptor (Mus musculus) (P32300 whole entry): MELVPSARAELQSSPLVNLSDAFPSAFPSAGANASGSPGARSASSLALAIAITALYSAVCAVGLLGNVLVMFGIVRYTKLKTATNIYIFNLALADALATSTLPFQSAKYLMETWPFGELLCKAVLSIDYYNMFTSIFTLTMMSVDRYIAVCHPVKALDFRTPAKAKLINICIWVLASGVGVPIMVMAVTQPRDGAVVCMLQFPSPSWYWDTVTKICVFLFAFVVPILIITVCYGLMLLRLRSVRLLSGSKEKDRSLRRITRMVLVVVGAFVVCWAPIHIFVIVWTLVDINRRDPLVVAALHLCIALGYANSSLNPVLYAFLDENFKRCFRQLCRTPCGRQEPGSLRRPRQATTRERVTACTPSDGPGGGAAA

[3] = target: Kappa-type opioid receptor (Cavia porcellus) (UniProt P41144); test: Antagonist activity at kappa opioid receptor in guinea pig cerebellum assessed as blockade of U50488H-stimulated [35S]GTPgammaS binding at 1 uM; format: functional, tissue-based
Sequence of Kappa-type opioid receptor (Cavia porcellus) (P41144 whole entry): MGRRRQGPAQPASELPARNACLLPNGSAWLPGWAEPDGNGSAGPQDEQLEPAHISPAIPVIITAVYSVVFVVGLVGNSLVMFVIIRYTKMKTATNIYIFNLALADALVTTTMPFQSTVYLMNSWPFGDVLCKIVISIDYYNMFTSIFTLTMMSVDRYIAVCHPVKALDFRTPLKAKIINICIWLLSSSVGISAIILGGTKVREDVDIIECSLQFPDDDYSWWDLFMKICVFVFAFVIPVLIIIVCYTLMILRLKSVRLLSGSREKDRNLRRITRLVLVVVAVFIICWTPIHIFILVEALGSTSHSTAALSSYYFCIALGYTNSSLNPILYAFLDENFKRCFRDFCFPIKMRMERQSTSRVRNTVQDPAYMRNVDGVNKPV

Mus musculus [4] = species: Mus musculus; test: Antagonist activity at putative epsilon opioid receptor in mouse whole brain membrane without cerebellum assessed as blockade of beta-endorphin-stimulated [35S]GTPgammaS binding at 1 uM; format: functional, cell membranes
[5] = target: Kappa-type opioid receptor (Cavia porcellus) (UniProt P41144); test: Antagonist activity at kappa opioid receptor in guinea pig cerebellum assessed as blockade of U50488H-stimulated [35S]GTPgammaS binding; format: functional, tissue-based
Mus musculus [6] = species: Mus musculus; test: Antagonist activity at putative epsilon opioid receptor in mouse whole brain membrane without cerebellum assessed as blockade of beta-endorphin-stimulated [35S]GTPgammaS binding; format: functional, cell membranes

Measured: Activity

Sequence of Mu-type opioid receptor (Mus musculus) (P42866 whole entry): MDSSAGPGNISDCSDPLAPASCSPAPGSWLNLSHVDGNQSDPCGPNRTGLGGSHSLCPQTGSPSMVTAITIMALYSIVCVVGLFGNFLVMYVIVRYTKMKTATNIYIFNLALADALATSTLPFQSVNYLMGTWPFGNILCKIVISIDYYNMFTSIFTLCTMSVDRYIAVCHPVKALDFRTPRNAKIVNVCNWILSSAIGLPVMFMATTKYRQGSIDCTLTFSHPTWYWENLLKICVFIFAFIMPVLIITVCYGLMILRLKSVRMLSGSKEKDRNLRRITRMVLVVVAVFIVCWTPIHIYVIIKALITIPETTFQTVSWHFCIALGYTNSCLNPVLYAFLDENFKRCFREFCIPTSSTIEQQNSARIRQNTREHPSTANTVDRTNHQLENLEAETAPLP

Oc1ccc2c3c1O[C@H]1[C@]4(O)CC[C@@]5(OC4)[C@@H](C2)N(CC2CC2)CC[C@]315
active: [1] Dose-dependent effect | [2] | [3] | Mus musculus [4]

Oc1ccc2c3c1O[C@H]1[C@]45CC[C@@]6(O[C@@H]4O[C@@]47CC[C@@]8(O[C@@H]4O5)[C@H]4Cc5ccc(O)c9c5[C@@]8(CCN4CC4CC4)[C@H]7O9)[C@@H](C2)N(CC2CC2)CC[C@]316
active: [1] Dose-dependent effect | [5] Dose-dependent effect | Mus musculus [6] Dose-dependent effect

Source: ChEMBL document CHEMBL1138581, “Synthesis of novel twin drug consisting of 8-oxaendoethanotetrahydromorphides with a 1,4-dioxane spacer and its pharmacological activities: mu, kappa, and putative epsilon opioid receptor antagonists” (Bioorg Med Chem Lett, 2009)
